Experimental data as given in ChEMBL document CHEMBL1201862, “PubChem BioAssay data set” (2004).
Activity calls are given as the source filed them.

Key:
[1] = target: T1, Matrix metalloproteinase-14 (Homo sapiens, UniProt P50281); test: Dose Response confirmation of uHTS hits for a small molecule inhibitors of MT1-MMP activation in a fluorescence assay set 1.; assay type: functional
Nonstructural protein 1 = Nonstructural protein 1 (Influenza A virus, UniProt Q194T2); assay type: functional, Influenza A virus (A/California/07/2009(H1N1))
[2] = Cytotoxicity screening for potential Inhibitors of Bacterial Capsule Biogenesis (4).; assay type: functional
[3] = CTGF mRNA reduction in DLD1 cells – cell-based, DLD1 colon cancer, RT-qPCR, cherry-pick, dose response (AID 1053122); assay type: functional; settings: Cancer cell lines
Paired box protein Pax-8 = Paired box protein Pax-8 (Homo sapiens, UniProt Q06710); test: PAX8 transcriptional activity inhibition in RMG-I – RMG-I cells, luciferase, cherry-pick, dose response (AID 687027); assay type: functional, cell-based;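 further: luciferase reporter driven by Pax8 target thyroperoxidase promoter measured by SteadyGlo luminescence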
[4] = OVCAR-3 cell viability loss – plate reader, dry powder samples, PAX8 inhibitor project, dose response (AID 743044); assay type: functional, cell-based
[5] = TNFa-induced NF-kB reporter signal decrease – HEK293 LMP1 reporter cells, dry powder, set 2, selectivity assay for EBV LMP1 NF-kB inhibitor project, dose response (AID 624369); assay type: functional
[6] = OVCAR8 cell viability loss – plate reader, dry powder samples, PAX8 project, dose response (AID 743197); assay type: functional, cell-based; settings: OVCAR-8
Kallikrein-7 = Kallikrein-7 (Homo sapiens, UniProt P49862); test: Fluorescence Intensity-based biochemical primary high throughput dose response assay to identify activators of kallikrein-7 (K7) zymogen.
[7] = optical artefact potency, substrate without enzyme – biochemical, fluorescence intensity, triplicate, artefact control for kallikrein-7 zymogen activator project, dose response (AID 720493)
[8] = inhibitors of EBV LMP1 NF-kappaB signaling – cell-based, luciferase reporter, luminescence, dry powder, set 2, dose response (AID 624376); assay type: functional
[9] = LMP1-induced NF-kB luciferase signal inhibition – cell-based, EBV LMP1, dry powder, set 2, dose response (AID 624361); assay type: functional
[10] = disruptors of Keap1 Kelch-Nrf2 peptide binding – biochemical, fluorescence polarization, dry powder, set 2, dose response (AID 651801)
[11] = disruptors of Keap1 Kelch-Nrf2 peptide binding – biochemical, fluorescence polarization, dry powder samples, dose response (AID 651798)
[12] = viability loss in CEM21 cells – cell-based, plate reader, dry powder, cytotoxicity control, dose response (AID 687026); assay type: functional
A549 = test: viability loss in A549 cells – cell-based, plate reader, cherry-pick samples, cytotoxicity control, dose response (AID 687028); assay type: functional; settings: Homo sapiens
Vero = test: viability loss in Vero cells – cell-based, plate reader, cherry-pick samples, cytotoxicity control, dose response (AID 687020); assay type: functional; settings: Chlorocebus sabaeus
[13] = target: Endoplasmic reticulum aminopeptidase 1 (Homo sapiens, UniProt Q9NZ08); test: inhibition of human ERAP1 enzyme activity – biochemical, cherry-pick, set 2, plate reader, dose response (AID 743314)
[14] = blockers of FN fibrillogenesis by fibroblasts – AH1F cells, Alexa488-FN fluorescence, cherry-picks, dose response (AID 1035475); assay type: functional, cell-based
[15] = target: T1, Matrix metalloproteinase-14; test: Dose Response confirmation of uHTS hits for a small molecule inhibitors of MT1-MMP activation in a fluorescence assay set 2.; assay type: functional

Sequence of Paired box protein Pax-8 (Q06710 whole entry): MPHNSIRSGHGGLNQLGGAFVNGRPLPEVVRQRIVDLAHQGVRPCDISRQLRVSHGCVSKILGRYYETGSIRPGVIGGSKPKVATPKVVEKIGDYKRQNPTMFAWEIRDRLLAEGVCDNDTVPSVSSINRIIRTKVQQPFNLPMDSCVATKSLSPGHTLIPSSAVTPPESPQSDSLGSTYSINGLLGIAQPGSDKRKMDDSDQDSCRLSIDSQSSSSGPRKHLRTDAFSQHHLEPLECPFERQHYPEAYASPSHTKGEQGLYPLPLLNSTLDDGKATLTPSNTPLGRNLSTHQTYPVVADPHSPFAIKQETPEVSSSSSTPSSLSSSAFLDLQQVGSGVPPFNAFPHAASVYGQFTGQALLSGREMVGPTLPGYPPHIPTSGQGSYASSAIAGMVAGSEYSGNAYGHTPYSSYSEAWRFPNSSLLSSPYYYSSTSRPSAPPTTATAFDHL
Sequence of Nonstructural protein 1 (Q194T2 whole entry): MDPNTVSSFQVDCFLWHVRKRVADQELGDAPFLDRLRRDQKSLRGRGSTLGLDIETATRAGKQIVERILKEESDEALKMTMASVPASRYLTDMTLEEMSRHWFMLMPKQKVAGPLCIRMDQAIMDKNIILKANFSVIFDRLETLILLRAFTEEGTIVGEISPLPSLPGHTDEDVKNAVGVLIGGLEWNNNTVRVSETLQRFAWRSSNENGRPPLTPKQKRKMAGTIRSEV
Sequence of Kallikrein-7 (P49862 whole entry): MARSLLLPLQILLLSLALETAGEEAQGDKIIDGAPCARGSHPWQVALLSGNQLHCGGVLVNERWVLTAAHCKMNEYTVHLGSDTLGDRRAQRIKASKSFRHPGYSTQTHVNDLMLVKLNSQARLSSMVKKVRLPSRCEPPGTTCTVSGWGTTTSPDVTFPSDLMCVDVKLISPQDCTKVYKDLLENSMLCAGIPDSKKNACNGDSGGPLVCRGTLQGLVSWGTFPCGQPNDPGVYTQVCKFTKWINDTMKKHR
Sequence of Endoplasmic reticulum aminopeptidase 1 (Q9NZ08 whole entry): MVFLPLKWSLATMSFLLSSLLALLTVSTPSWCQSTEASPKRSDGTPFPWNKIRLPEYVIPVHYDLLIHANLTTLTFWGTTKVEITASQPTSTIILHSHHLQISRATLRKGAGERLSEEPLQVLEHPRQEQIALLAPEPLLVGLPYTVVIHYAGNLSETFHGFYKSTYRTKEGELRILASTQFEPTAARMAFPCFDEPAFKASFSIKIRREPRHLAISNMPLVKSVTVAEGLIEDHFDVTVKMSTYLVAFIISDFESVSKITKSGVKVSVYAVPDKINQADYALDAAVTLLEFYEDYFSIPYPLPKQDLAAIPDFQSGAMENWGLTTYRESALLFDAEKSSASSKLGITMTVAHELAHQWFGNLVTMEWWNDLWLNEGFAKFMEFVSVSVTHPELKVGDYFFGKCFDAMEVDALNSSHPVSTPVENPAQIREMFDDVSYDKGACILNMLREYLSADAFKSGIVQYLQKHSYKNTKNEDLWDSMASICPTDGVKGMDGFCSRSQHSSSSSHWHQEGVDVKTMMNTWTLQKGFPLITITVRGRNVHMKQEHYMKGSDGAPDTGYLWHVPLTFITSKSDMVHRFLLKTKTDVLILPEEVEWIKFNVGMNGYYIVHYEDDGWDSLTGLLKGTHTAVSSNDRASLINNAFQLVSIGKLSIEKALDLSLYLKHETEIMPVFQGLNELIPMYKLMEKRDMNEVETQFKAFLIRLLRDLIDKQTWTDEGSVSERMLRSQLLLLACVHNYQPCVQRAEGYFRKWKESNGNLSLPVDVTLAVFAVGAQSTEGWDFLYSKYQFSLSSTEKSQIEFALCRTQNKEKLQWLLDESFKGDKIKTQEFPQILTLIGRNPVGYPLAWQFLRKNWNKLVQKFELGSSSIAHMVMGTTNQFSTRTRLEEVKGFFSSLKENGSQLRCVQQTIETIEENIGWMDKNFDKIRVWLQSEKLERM

**Q.** What does the source list for `Cc1cc(N(CCO)CCO)ccc1N=Nc1cc(F)ccc1F`?
**A.** IC50 [1]: 31.6 µM (inactive); IC50 (Nonstructural protein 1): 19.2 µM (active)

**Q.** Which CC50 [2] does the source give for `CC(C)(C)OC(=O)Nc1nc2ccc(C(=O)Nc3ccnc(F)c3)cc2s1` here?
**A.** > 300 µM (inactive)

**Q.** For `COc1ccccc1NC(=O)N1CCCCN2[C@@H](CO)[C@H](c3ccc(-c4cccc(C#N)c4)cc3)[C@@H]2C1`, which AC50 [3] is on record?
**A.** 0.918 µM (active)

**Q.** For `COc1ccccc1C#Cc1ccc2c(c1)O[C@H](CN(C)Cc1cccnc1)[C@H](C)CN([C@@H](C)CO)S2(=O)=O`, which AC50 (Paired box protein Pax-8) is on record?
**A.** 7.51 µM (active)

**Q.** What about the AC50 [4] of the same compound?
**A.** 21.4 µM (active)

**Q.** And the AbsAC35 [5]?
**A.** 38.33 µM

**Q.** What about the AC50 [6] of the same compound?
**A.** 32.2 µM (active)

**Q.** Which results are given for `CN1CCN(Cc2c(O)c(Cl)cc3c(-c4ccccc4)cc(=O)oc23)CC1`?
**A.** EC50 (Kallikrein-7): 68.3 µM (inactive); EC50 [7]: > 0.286 µM (active)

**Q.** For `CC(=O)N(C)C[C@@H]1Oc2cc(C#Cc3ccc(F)cc3)ccc2S(=O)(=O)N([C@H](C)CO)C[C@H]1C`, which AbsAC35 [8] is on record?
**A.** 109.84 µM

**Q.** What about the AbsAC35 [9] of the same compound?
**A.** 57.53 µM

**Q.** Which AC50 [10] does the source give for `O=C(O)C1CCCCC1C(=O)N1CCc2ccccc2C1CN1C(=O)c2ccccc2S1(=O)=O` (configuration not stated) here?
**A.** 78.9 µM (active)

**Q.** What about the AC50 [11] of the same compound?
**A.** 71.1 µM (active)

**Q.** For `CCCOc1ccc(S(=O)(=O)NCc2ccncc2)c2ccccc12`, which AC50 [12] is on record?
**A.** > 70 µM (inactive)

**Q.** Which AC50 (Paired box protein Pax-8) does the source give for `CCCCCc1c(-c2ccccc2OC)ncn1CCc1ccccc1OC` here?
**A.** 24.9 µM (active)

**Q.** What about the AC50 (A549) of the same compound?
**A.** 13.9 µM (active)

**Q.** What about the AC50 (Vero) of the same compound?
**A.** 3.91 µM (active)

**Q.** Which AC50 [13] does the source give for `CCc1c(C)c2cc(Cl)c(O)c(CN(C)C)c2oc1=O` here?
**A.** 5.35 µM (active)

**Q.** For `N#Cc1ccc(-c2ccc3c(c2)[C@@H]2[C@@H](CCN2S(=O)(=O)c2ccccc2F)[C@H](CO)N3)cc1`, which AC50 [14] is on record?
**A.** 24.5 µM (active)

**Q.** What does the source list for `CN(CCCC(=O)O)c1ccc(N=Nc2ccc([N+](=O)[O-])cc2)cc1`?
**A.** IC50 [15]: 18.9 µM (active); IC50 (Nonstructural protein 1): 9.48 µM (active)
